Measurements: ChEMBL document CHEMBL5653631, “A Potent and Selective ULK1 Inhibitor Suppresses Autophagy and Sensitizes Cancer Cells to Nutrient Stress” (iScience, 2018)

Legend:
[1] = target: T1, Homeodomain-interacting protein kinase 4 (Homo sapiens) (UniProt Q8NE63); test: Inhibition of human recombinant HIPK4 at 15 nM in presence of ATP by radiometric assay relative to control
T1 sequence (whole entry): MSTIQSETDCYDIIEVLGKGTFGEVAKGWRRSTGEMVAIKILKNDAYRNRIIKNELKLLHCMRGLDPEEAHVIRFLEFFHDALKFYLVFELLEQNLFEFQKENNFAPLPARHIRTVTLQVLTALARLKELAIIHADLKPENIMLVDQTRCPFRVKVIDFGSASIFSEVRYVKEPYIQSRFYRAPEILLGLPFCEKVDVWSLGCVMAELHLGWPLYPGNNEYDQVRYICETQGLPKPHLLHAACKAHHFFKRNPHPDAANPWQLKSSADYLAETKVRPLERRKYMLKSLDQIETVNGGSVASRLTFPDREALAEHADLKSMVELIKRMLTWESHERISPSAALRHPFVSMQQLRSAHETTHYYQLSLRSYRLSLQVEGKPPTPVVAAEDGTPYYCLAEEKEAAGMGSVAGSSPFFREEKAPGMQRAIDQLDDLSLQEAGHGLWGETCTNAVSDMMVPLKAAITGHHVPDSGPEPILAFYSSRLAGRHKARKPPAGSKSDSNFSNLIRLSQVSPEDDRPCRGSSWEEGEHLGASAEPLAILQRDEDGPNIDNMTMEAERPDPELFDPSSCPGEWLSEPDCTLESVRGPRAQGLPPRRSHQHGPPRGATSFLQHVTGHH

[2] = target: Serine/threonine-protein kinase WNK1 (Homo sapiens) (UniProt Q9H4A3); test: Inhibition of human recombinant Wnk1 at 15 nM related to control ULK1
[3] = target: Dual specificity protein kinase CLK1 (Homo sapiens) (UniProt P49759); test: Inhibition of human recombinant CLK1 at 40 nM related to control ULK1
[4] = target: T2, Serine/threonine-protein kinase DCLK3 (Homo sapiens) (UniProt Q9C098); test: Inhibition of human recombinant DCAMKL3 at 40 nM in presence of ATP by radiometric assay relative to control
T2 sequence (whole entry): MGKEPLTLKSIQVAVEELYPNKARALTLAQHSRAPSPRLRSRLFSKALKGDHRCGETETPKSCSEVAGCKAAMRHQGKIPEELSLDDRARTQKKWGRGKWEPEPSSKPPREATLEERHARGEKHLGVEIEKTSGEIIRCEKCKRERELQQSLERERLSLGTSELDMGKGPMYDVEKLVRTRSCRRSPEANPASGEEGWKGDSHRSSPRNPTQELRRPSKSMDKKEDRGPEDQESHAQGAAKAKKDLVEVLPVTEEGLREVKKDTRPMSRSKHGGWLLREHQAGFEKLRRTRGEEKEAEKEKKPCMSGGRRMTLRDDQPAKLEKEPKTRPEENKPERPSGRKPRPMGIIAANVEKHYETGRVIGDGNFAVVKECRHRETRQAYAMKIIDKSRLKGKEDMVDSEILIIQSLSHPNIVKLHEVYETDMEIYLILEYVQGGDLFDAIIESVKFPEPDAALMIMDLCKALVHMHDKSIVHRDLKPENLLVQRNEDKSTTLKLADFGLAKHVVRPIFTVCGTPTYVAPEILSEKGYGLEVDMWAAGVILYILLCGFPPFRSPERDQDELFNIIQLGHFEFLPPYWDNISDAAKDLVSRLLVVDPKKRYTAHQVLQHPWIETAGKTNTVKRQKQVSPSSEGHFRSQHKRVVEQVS

[5] = target: Dual specificity protein kinase CLK2 (Homo sapiens) (UniProt P49760); test: Inhibition of human recombinant CLK2 at 40 nM related to control ULK1
[6] = target: T3, Tyrosine-protein kinase receptor TYRO3 (Homo sapiens) (UniProt Q06418); test: Inhibition of human recombinant TYRO3 at 40 nM related to control ULK1
T3 sequence (whole entry): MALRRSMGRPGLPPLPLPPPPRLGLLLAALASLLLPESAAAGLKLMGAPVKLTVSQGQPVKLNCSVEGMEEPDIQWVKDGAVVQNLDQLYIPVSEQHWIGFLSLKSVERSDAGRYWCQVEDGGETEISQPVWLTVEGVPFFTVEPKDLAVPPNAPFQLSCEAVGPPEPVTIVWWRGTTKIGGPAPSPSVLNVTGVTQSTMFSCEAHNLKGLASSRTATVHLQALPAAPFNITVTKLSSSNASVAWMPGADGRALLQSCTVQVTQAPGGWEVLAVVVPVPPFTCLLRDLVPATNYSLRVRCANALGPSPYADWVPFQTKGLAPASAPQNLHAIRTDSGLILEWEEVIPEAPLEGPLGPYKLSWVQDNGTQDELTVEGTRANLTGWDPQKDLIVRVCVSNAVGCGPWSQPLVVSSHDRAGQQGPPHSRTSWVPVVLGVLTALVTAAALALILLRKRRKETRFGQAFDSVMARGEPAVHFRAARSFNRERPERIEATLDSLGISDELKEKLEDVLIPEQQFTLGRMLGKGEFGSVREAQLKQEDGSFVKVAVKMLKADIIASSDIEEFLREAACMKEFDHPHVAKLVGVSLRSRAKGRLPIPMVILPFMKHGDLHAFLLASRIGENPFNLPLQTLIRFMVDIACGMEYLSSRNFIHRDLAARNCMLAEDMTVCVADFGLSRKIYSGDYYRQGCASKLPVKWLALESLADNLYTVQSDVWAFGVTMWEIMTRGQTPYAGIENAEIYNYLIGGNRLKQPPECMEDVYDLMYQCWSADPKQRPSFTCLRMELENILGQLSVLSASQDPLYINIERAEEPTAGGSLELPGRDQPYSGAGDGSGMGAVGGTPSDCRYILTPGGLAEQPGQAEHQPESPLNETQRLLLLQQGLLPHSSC

Serine/threonine-protein kinase WNK1 (Homo sapiens), sequence (Q9H4A3 whole entry, looked up): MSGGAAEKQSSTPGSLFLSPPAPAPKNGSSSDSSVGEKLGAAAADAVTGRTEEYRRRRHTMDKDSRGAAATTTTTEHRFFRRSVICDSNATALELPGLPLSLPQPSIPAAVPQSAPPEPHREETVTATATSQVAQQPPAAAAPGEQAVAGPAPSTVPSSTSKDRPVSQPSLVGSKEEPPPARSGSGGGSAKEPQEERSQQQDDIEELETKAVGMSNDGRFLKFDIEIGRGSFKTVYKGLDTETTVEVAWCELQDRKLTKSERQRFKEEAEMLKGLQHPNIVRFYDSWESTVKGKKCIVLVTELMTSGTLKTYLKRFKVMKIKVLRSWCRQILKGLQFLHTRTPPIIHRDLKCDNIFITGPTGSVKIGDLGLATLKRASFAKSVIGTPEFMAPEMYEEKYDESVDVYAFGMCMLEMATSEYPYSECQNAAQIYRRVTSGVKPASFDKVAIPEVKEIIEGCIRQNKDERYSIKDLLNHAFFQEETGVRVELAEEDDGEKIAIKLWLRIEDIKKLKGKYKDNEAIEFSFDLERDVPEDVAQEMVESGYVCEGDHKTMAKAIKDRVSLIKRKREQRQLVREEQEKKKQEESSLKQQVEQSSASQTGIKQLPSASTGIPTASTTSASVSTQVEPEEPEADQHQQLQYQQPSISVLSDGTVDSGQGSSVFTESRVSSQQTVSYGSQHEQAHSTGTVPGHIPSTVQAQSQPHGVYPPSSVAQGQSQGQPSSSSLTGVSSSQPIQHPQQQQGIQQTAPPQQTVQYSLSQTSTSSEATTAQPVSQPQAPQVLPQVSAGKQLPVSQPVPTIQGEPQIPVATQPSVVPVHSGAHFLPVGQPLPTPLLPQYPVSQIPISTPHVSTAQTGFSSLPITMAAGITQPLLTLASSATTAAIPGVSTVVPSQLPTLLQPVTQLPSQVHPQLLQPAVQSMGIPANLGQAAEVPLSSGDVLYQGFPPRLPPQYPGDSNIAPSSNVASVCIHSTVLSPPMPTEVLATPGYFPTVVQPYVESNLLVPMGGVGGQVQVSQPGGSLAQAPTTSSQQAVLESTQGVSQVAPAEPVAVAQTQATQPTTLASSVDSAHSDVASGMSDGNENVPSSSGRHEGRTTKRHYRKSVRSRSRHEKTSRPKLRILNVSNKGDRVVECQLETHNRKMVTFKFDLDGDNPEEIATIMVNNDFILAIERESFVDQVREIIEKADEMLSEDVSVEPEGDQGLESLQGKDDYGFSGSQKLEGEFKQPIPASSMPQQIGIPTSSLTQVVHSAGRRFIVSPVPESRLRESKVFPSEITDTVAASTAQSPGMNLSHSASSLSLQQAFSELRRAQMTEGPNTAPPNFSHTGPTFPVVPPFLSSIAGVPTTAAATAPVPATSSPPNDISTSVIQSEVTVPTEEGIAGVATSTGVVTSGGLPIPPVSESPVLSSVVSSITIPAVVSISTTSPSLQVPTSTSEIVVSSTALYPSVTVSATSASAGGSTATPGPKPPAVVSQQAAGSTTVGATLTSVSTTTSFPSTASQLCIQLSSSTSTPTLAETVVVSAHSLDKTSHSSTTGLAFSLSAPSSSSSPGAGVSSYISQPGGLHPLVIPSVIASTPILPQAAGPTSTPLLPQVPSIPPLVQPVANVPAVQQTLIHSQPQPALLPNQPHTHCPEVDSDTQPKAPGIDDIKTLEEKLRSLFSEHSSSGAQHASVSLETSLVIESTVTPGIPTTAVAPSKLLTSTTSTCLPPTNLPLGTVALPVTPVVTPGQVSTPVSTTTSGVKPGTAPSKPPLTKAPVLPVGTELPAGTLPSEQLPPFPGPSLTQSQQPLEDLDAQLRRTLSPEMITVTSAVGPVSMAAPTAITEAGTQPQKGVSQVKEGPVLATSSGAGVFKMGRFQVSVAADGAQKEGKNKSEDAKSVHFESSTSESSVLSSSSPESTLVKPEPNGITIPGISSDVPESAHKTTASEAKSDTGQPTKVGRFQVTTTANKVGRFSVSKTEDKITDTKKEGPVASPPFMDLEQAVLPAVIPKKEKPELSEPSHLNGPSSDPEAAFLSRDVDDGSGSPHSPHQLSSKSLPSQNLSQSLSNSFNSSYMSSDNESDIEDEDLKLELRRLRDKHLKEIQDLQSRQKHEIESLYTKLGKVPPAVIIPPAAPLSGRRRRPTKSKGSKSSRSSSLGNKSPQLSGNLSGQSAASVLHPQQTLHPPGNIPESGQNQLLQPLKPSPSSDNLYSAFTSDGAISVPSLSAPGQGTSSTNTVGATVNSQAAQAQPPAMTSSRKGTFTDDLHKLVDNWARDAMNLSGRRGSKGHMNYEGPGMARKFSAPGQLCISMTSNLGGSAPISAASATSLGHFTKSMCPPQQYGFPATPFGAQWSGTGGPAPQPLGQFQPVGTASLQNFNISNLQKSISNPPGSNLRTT
Dual specificity protein kinase CLK2 (Homo sapiens), sequence (P49760 whole entry, looked up): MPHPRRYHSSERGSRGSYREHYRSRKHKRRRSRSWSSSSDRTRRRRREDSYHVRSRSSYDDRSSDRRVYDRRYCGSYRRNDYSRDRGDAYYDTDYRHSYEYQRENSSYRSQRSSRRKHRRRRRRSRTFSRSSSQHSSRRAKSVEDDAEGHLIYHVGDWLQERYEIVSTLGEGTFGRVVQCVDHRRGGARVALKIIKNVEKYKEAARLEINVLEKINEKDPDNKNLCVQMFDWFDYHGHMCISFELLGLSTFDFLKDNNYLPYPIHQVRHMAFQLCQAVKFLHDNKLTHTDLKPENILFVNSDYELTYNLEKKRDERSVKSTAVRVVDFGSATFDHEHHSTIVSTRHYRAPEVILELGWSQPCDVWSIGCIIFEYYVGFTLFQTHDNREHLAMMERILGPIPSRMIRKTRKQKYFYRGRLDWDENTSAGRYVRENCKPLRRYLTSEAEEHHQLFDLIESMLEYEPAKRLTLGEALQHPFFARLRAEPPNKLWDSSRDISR
Dual specificity protein kinase CLK1 (Homo sapiens), sequence (P49759 whole entry, looked up): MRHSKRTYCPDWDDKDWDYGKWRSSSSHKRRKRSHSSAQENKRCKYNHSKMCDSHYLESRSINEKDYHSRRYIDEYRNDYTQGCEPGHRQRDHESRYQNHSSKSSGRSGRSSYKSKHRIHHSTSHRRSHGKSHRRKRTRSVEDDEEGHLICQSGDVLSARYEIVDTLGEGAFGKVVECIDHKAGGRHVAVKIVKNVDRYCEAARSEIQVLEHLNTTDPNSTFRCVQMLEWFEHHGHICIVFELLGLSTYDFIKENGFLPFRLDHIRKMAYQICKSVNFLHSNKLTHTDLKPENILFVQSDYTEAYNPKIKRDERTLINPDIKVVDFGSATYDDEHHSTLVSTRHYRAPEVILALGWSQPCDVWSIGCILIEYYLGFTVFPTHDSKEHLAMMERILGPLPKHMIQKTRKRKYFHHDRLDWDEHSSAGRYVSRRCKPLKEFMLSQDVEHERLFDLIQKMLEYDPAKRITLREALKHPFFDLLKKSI

inhibition [1]	fold change (FC) [2]	fold change (FC) [3]	inhibition [4]	fold change (FC) [5]	fold change (FC) [6]	SMILES
0%	0.05	–	–	–	–	CC(C)[C@H](NC(=O)c1cc(-c2cnn3cc(-c4ccc(OCCN5CCCCC5)cc4)cnc23)cs1)C(F)(F)F
–	–	0.47	2%	0.26	0	O=C(N[C@@H](C1CC1)C(F)(F)F)c1cc(-c2cnn3cc(-c4ccc(F)cc4)cnc23)cs1
